According to the supplement of paper PMC8617591:

Assays:
[1] = tested on: Mycobacterium tuberculosis Erdman (autoluminescent); assay: GRinf, maximum normalised growth rate inhibition (unitless (-1 to 1)); higher = less effect (negative = killing)
Protocol: (§1)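 DiaMOND equipotent two-drug combination dose responses against autoluminescent M. tuberculosis Erdman in 8 in vitro models. Read-out is OD600, or luminescence for the intracellular and dormancy models, normalised to untreated wells. Hill-fit Einf, AUC25 and GRinf are potency metrics; FIC50 and FIC90 are Loewe-additivity fractional inhibitory concentrations, given as log2 (negative = synergy). Replicates are averaged.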

[2] = tested on: Mycobacterium tuberculosis Erdman (autoluminescent); assay: FIC90 (Loewe) at 90% inhibition (log2); higher = more antagonistic
Protocol: as §1

[3] = tested on: Mycobacterium tuberculosis Erdman (autoluminescent); assay: AUC25, normalised area under dose response up to IC25 (fraction (0-1)); higher = more potent at low dose
Protocol: as §1

[4] = tested on: Mycobacterium tuberculosis Erdman (autoluminescent); assay: FIC50 (Loewe) at 50% inhibition (log2); higher = more antagonistic
Protocol: as §1

[5] = tested on: Mycobacterium tuberculosis Erdman (autoluminescent); assay: Einf, fitted maximum growth inhibition of combination (fraction); higher = stronger maximal inhibition
Protocol: as §1

CC(C)/N=c1\cc2n(-c3ccc(Cl)cc3)c3ccccc3nc-2cc1Nc1ccc(Cl)cc1 [clofazimine] + NC(=O)c1cnccn1 [pyrazinamide]
Settings | AUC25, [3] | Einf, [5] | FIC50, [4] | FIC90, [2] | GRinf, [1]
in vitro model: acidic pH 5.7, time point: constant (~7 days, model-specific) | 0.0987 | 0.807 | -0.0856 | – | -0.109
in vitro model: acidic pH 5.7, time point: terminal (~4-5 doublings, model-specific) | 0.106 | 0.98 | -0.519 | -0.794 | -0.397
in vitro model: intracellular J774, time point: constant = terminal | – | 0.996 | – | 0.158 | -0.38

Settings | AUC25, [3] | Einf, [5] | FIC50, [4] | FIC90, [2] | GRinf, [1]
in vitro model: butyrate, time point: constant (~7 days, model-specific) | 0.116 | 0.922 | -0.639 | 0.884 | -0.0318
in vitro model: butyrate, time point: terminal (~4-5 doublings, model-specific) | 0.0881 | 0.958 | -0.58 | -0.361 | -0.00889
in vitro model: cholesterol 0.05 mM, time point: constant (~7 days, model-specific) | 0.146 | 0.653 | – | – | -0.153
in vitro model: cholesterol 0.05 mM, time point: terminal (~4-5 doublings, model-specific) | 0.143 | 0.923 | 0.474 | – | -0.338
in vitro model: cholesterol-high 0.2 mM, time point: constant (~7 days, model-specific) | 0.116 | 0.896 | 0.166 | – | -0.475
in vitro model: cholesterol-high 0.2 mM, time point: terminal (~4-5 doublings, model-specific) | 0.0971 | 1 | 0.233 | 0.114 | -0.881
in vitro model: dormancy (butyrate + nitrate, low O2), time point: constant (~7 days, model-specific) | 0.12 | 0.935 | -0.722 | -0.326 | -0.0386
in vitro model: dormancy (butyrate + nitrate, low O2), time point: terminal (~4-5 doublings, model-specific) | 0.0754 | 0.989 | -0.936 | -0.669 | -0.387
in vitro model: standard 7H9 glycerol, time point: constant = terminal | 0.11 | 0.96 | -0.68 | – | -0.102
in vitro model: valerate, time point: constant (~7 days, model-specific) | 0.143 | 0.885 | -0.679 | – | -0.366
in vitro model: valerate, time point: terminal (~4-5 doublings, model-specific) | 0.0829 | 0.938 | 0.0438 | 0.152 | 0.0893

CC(C)/N=c1\cc2n(-c3ccc(Cl)cc3)c3ccccc3nc-2cc1Nc1ccc(Cl)cc1 [clofazimine] + NNC(=O)c1ccncc1 [isoniazid]
Settings | AUC25, [3] | Einf, [5] | FIC50, [4] | FIC90, [2] | GRinf, [1]
in vitro model: acidic pH 5.7, time point: constant (~7 days, model-specific) | 0.1 | 0.747 | 0.122 | – | 0.074
in vitro model: acidic pH 5.7, time point: terminal (~4-5 doublings, model-specific) | 0.0893 | 0.942 | 0.116 | 0.154 | -0.114
in vitro model: intracellular J774, time point: constant = terminal | – | 0.951 | – | 0.406 | -0.209

Settings | AUC25, [3] | Einf, [5] | FIC50, [4] | FIC90, [2] | GRinf, [1]
in vitro model: butyrate, time point: constant (~7 days, model-specific) | 0.0814 | 0.947 | 0.425 | 0.813 | -0.079
in vitro model: butyrate, time point: terminal (~4-5 doublings, model-specific) | 0.0801 | 0.988 | 0.35 | 0.54 | -0.117
in vitro model: cholesterol 0.05 mM, time point: constant (~7 days, model-specific) | 0.114 | 0.719 | 0.223 | – | -0.06
in vitro model: cholesterol 0.05 mM, time point: terminal (~4-5 doublings, model-specific) | 0.126 | 0.928 | 0.688 | 0.0937 | -0.181
in vitro model: cholesterol-high 0.2 mM, time point: constant (~7 days, model-specific) | 0.118 | 0.93 | 0.123 | -0.0588 | -0.856
in vitro model: cholesterol-high 0.2 mM, time point: terminal (~4-5 doublings, model-specific) | 0.106 | 0.999 | 0.197 | 0.419 | -0.882
in vitro model: dormancy (butyrate + nitrate, low O2), time point: constant (~7 days, model-specific) | 0.0958 | 0.92 | -0.176 | -0.0674 | 0.255
in vitro model: dormancy (butyrate + nitrate, low O2), time point: terminal (~4-5 doublings, model-specific) | 0.058 | 0.981 | -0.116 | -0.0457 | -0.0683
in vitro model: standard 7H9 glycerol, time point: constant = terminal | 0.105 | 0.964 | -0.0807 | 0.0617 | -0.146
in vitro model: valerate, time point: constant (~7 days, model-specific) | 0.144 | 0.925 | 0.0757 | 1.95 | -0.0991
in vitro model: valerate, time point: terminal (~4-5 doublings, model-specific) | 0.0841 | 0.937 | -0.0577 | 0.814 | 0.0302
